The source made the active and inactive calls. The rule behind the calls is not given here.
Assays:
[1] = molecular target: T1, von Hippel-Lindau disease tumor suppressor/Casein kinase I isoform delta (Homo sapiens, UniProt P48730+P40337); assay: PROTAC activity at VHL/full length N-terminal Nano-luc fused CK1 delta (unknown origin) transfected in HEK293T cells incubated for 2 hrs followed by substrate addition by NanoBRET target engagement assay; type: cell-based
[2] = molecular target: T1, von Hippel-Lindau disease tumor suppressor/Casein kinase I isoform delta; assay: PROTAC activity at VHL/Hibit-fused CK1 delta in human MV4-11 cells assessed as degradation of CK1-delta incubated for 6 hrs by Nano-Glo HiBiT assay relative to control; type: cell-based
[3] = molecular target: T1, von Hippel-Lindau disease tumor suppressor/Casein kinase I isoform delta; assay: PROTAC activity at VHL/Hibit-fused CK1 delta in human MV4-11 cells assessed as degradation of CK1-delta at 10 nM incubated for 6 hrs by Nano-Glo HiBiT assay; type: cell-based
[4] = molecular target: T2, von Hippel-Lindau disease tumor suppressor/Casein kinase I isoform alpha (Homo sapiens) (UniProt P48729+P40337); assay: PROTAC activity at VHL/CK1 alpha (unknown origin) endogenously expressed in HEK293 cells assessed as degradation of CK1-alpha at 10 to 30 uM incubated for 6 hrs by Western blot analysis; type: cell-based; conditions: dose 10-30 µM
[5] = molecular target: T1, von Hippel-Lindau disease tumor suppressor/Casein kinase I isoform delta; assay: PROTAC activity at VHL/Hibit-fused CK1 delta in human MV4-11 cells assessed as degradation of CK1 delta at 5 to 10 uM incubated for 6 hrs by Western blot analysis; type: cell-based; conditions: dose 5-10 µM
[6] = molecular target: T1, von Hippel-Lindau disease tumor suppressor/Casein kinase I isoform delta; assay: PROTAC activity at VHL/CK1 delta in human MV4-11 cells assessed as degradation of CK1-delta at 5 to 10 uM incubated for 6 hrs by Western blot analysis; type: cell-based; conditions: dose 5-10 µM
[7] = molecular target: T3, von Hippel-Lindau disease tumor suppressor/Casein kinase I isoform epsilon (Homo sapiens) (UniProt P49674+P40337); assay: PROTAC activity at VHL/CK1 epsilon in human MV4-11 cells assessed as degradation of CK1 epsilon at 5 to 10 uM incubated for 6 hrs by Western blot analysis; type: cell-based; conditions: dose 5-10 µM
[8] = molecular target: T2, von Hippel-Lindau disease tumor suppressor/Casein kinase I isoform alpha (Homo sapiens); assay: PROTAC activity at VHL/CK1 alpha in HEK293 cells assessed as induction of degradation of CK1 alpha by measuring maximum efficacy at 5 to 10 uM measured after 6 hrs by Western blot analysis relative to control; type: cell-based; conditions: dose 5-10 µM
MV4-11 = assay: Cytotoxicity in human MV4-11 cells at 10 uM measured after 72 hrs by alamar blue assay; type: functional, cell-based
[9] = molecular target: T2, von Hippel-Lindau disease tumor suppressor/Casein kinase I isoform alpha (Homo sapiens); assay: PROTAC activity at VHL/CK1 alpha in HEK293 cells assessed as induction of degradation of CK1 alpha at 10 uM measured after 6 hrs by Western blot analysis relative to control; type: cell-based
[10] = molecular target: T2, von Hippel-Lindau disease tumor suppressor/Casein kinase I isoform alpha (Homo sapiens); assay: PROTAC activity at VHL/CK1 alpha in HEK293 cells assessed as induction of degradation of CK1 alpha at high concentration measured after 6 hrs by Western blot analysis relative to control; type: cell-based
[11] = molecular target: T1, von Hippel-Lindau disease tumor suppressor/Casein kinase I isoform delta; assay: PROTAC activity at VHL/CK1 delta in HEK293 cells assessed as induction of degradation of CK1 delta at 3 uM measured after 6 hrs by Western blot analysis relative to control; type: cell-based
[12] = molecular target: T3, von Hippel-Lindau disease tumor suppressor/Casein kinase I isoform epsilon (Homo sapiens); assay: PROTAC activity at VHL/CK1 epsilon in HEK293 cells assessed as induction of degradation of CK1 epsilon at 3 uM measured after 6 hrs by Western blot analysis relative to control; type: cell-based
[13] = molecular target: T2, von Hippel-Lindau disease tumor suppressor/Casein kinase I isoform alpha (Homo sapiens); assay: PROTAC activity at VHL/CK1 alpha in human MV4-11 cells assessed as induction of degradation of CK1 alpha by measuring maximum efficacy at 10 uM measured after 12 hrs by HiBit assay relative to control; type: cell-based
[14] = molecular target: T2, von Hippel-Lindau disease tumor suppressor/Casein kinase I isoform alpha (Homo sapiens); assay: PROTAC activity at VHL/CK1 alpha in human MV4-11 cells assessed as induction of degradation of CK1 alpha measured after 1 hrs by HiBit assay; type: cell-based; conditions: dose 0.625-10 µM
[15] = molecular target: T1, von Hippel-Lindau disease tumor suppressor/Casein kinase I isoform delta; assay: PROTAC activity at VHL/CK1 delta in human MV4-11 cells assessed as induction of degradation of CK1 delta by measuring maximum efficacy at 0.625 to 10 uM measured after 9 hrs by HiBit assay relative to control; type: cell-based; conditions: dose 0.625-10 µM
[16] = molecular target: T3, von Hippel-Lindau disease tumor suppressor/Casein kinase I isoform epsilon (Homo sapiens); assay: PROTAC activity at VHL/CK1 epsilon in human U87 cells assessed as induction of degradation of CK1 epsilon at 1 uM measured after 6 hrs; type: cell-based
[17] = molecular target: T2, von Hippel-Lindau disease tumor suppressor/Casein kinase I isoform alpha (Homo sapiens); assay: PROTAC activity at VHL/CK1 alpha in human MDA-MB-231 cells assessed as induction of degradation of CK1 alpha at 1 uM measured after 6 hrs; type: cell-based
[18] = molecular target: T2, von Hippel-Lindau disease tumor suppressor/Casein kinase I isoform alpha (Homo sapiens); assay: PROTAC activity at VHL/CK1 alpha in human U87 cells assessed as induction of degradation of CK1 alpha at 1 uM measured after 6 hrs; type: cell-based
[19] = molecular target: T1, von Hippel-Lindau disease tumor suppressor/Casein kinase I isoform delta; assay: PROTAC activity at VHL/CK1 delta in human MDA-MB-231 cells assessed as induction of degradation of CK1 delta by measuring maximum efficacy at 1 uM measured after 6 hrs relative to control; type: cell-based
[20] = molecular target: T1, von Hippel-Lindau disease tumor suppressor/Casein kinase I isoform delta; assay: PROTAC activity at VHL/HiBit fused CK1 delta in human MV4-11 cells assessed as fold change at 10 uM measured after 6 hrs in presence of MLN4924 by Nano-Glo HiBit assay; type: cell-based
[21] = molecular target: T1, von Hippel-Lindau disease tumor suppressor/Casein kinase I isoform delta; assay: PROTAC activity at VHL/HiBit fused CK1 delta in human MV4-11 cells assessed as fold change at 10 uM measured after 6 hrs in presence of 1 uM of MU1742 by Nano-Glo HiBit assay; type: cell-based
[22] = molecular target: T1, von Hippel-Lindau disease tumor suppressor/Casein kinase I isoform delta; assay: PROTAC activity at VHL/HiBit fused CK1 delta in human MV4-11 cells assessed as fold change at 2.5 uM measured after 6 hrs in presence of MLN4924 by Nano-Glo HiBit assay; type: cell-based
[23] = molecular target: T1, von Hippel-Lindau disease tumor suppressor/Casein kinase I isoform delta; assay: PROTAC activity at VHL/HiBit fused CK1 delta in human MV4-11 cells assessed as fold change at 0.63 uM measured after 6 hrs in presence of MLN4924 by Nano-Glo HiBit assay; type: cell-based
[24] = molecular target: T1, von Hippel-Lindau disease tumor suppressor/Casein kinase I isoform delta; assay: PROTAC activity at VHL/HiBit fused CK1 delta in human MV4-11 cells assessed as fold change at 0.63 uM measured after 6 hrs in presence of 10 uM of MU1742 by Nano-Glo HiBit assay; type: cell-based
[25] = molecular target: T1, von Hippel-Lindau disease tumor suppressor/Casein kinase I isoform delta; assay: PROTAC activity at VHL/CK1 delta in human HEK293 cells at 0.625 to 10 uM in presence of MU1742 by Western blot analysis; type: cell-based; conditions: dose 0.625-10 µM
[26] = molecular target: T1, von Hippel-Lindau disease tumor suppressor/Casein kinase I isoform delta; assay: PROTAC activity at VHL/CK1 delta in human HEK293 cells assessed as degradation of CK1-delta at 3 to 20 uM incubated overnight followed by compound washout and measured after 1 hr by Nano-Glo HiBiT assay; type: cell-based; conditions: dose 3-20 µM
[27] = molecular target: T3, von Hippel-Lindau disease tumor suppressor/Casein kinase I isoform epsilon (Homo sapiens); assay: PROTAC activity at VHL/CK1 epsilon in human HEK293 cells assessed as degradation of CK1 epsilon at 3 to 20 uM incubated overnight followed by compound washout and measured after 1 hr by Nano-Glo HiBiT assay; type: cell-based; conditions: dose 3-20 µM
[28] = molecular target: T3, von Hippel-Lindau disease tumor suppressor/Casein kinase I isoform epsilon (Homo sapiens); assay: PROTAC activity at VHL/CK1 epsilon in HEK293 cells assessed as induction of degradation of CK1 epsilon at upto 20 uM pretreated with LGK974 followed by compound addition and measured after 6 hrs by Western blot analysis; type: cell-based
[29] = molecular target: Casein kinase I isoform delta (Homo sapiens) (UniProt P48730); assay: Binding affinity to […] in human HEK293 cells assessed as target engagement at >3 uM; type: cell-based
Casein kinase I isoform delta (Homo sapiens), sequence (P48730 whole entry, looked up, canonical isoform): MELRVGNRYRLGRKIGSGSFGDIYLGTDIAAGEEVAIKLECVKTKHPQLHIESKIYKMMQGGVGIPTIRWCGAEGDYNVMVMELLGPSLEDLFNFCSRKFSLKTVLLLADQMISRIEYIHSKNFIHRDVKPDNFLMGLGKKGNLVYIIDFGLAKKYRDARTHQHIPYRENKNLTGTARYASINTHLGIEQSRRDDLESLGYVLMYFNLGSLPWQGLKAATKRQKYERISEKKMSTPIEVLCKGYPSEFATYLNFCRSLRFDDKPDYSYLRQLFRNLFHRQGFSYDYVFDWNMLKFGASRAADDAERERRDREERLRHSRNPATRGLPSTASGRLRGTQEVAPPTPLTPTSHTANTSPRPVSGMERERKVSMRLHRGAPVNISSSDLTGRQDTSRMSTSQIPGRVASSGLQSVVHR

T1 sequence (P40337 whole entry, looked up, the tested form may be a part, canonical isoform): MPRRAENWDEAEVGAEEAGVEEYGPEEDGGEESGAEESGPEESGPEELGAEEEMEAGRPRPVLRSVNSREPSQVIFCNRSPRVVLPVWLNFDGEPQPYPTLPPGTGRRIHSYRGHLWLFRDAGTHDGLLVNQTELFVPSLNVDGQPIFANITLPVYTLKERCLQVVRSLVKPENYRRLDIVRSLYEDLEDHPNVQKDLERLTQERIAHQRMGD
T1 sequence (P48730 whole entry, looked up, the tested form may be a part, canonical isoform): as the sequence (P48730 whole entry, looked up, canonical isoform) above
T3 sequence (P40337 whole entry, looked up, canonical isoform): as the sequence (P40337 whole entry, looked up, the tested form may be a part, canonical isoform) above
T3 sequence (P49674 whole entry, looked up, canonical isoform): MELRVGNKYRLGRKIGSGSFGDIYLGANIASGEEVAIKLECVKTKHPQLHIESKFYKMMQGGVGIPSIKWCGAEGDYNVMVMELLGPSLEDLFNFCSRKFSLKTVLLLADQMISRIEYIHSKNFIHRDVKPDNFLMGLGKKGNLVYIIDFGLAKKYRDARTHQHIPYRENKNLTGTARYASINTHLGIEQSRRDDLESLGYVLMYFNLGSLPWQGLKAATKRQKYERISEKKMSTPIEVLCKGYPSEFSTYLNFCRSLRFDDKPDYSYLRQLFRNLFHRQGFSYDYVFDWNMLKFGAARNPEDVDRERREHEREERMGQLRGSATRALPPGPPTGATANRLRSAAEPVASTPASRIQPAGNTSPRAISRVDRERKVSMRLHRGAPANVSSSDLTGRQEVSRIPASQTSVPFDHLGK
T2 sequence (P40337 whole entry, looked up, the tested form may be a part, canonical isoform): as the sequence (P40337 whole entry, looked up, the tested form may be a part, canonical isoform) above
T2 sequence (P48729 whole entry, looked up, the tested form may be a part, canonical isoform): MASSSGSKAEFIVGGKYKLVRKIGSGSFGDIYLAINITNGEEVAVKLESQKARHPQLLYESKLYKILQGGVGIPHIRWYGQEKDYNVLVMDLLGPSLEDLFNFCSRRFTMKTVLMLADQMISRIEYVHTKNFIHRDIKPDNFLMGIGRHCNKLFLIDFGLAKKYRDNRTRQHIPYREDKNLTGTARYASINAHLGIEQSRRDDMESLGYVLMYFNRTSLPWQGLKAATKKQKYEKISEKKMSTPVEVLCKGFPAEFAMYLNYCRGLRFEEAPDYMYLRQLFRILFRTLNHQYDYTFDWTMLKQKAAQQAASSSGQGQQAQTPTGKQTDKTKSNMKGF

In the case of Cc1ncsc1-c1ccc(CNC(=O)[C@H]2C[C@H](O)CN2C(=O)[C@H](NC(=O)CCCCCCC(=O)N2CCC(F)(Cn3cnc(-c4ccc(F)cn4)c3-c3ccnc4[nH]ccc34)CC2)C(C)(C)C)cc1, the Emax [1] is reported as 3.2%, the Emax [2] is reported as 70.1% and the Activity [3] is reported as “Active”. The Activity [4] was “Active”, the Activity [5] was “Active” and the Activity [6] was “Active”. The Activity [7] was “Active”, the Emax [8] was > 50% and the Activity (MV4-11) was “Active; Compound Showed Milder Cytotoxic Effect”. For the same compound, the Activity [9] was “Not active; Compound Showed Weak Degradation”, the Activity [10] was “Not active; Compound Showed Weak Degradation” and the Activity [11] was 100%. The Activity [12] was 100%, the Emax [13] was 50% and the Activity [14] was “Dose-dependent-effect”. The Emax [15] was 75%, the Activity [16] was “Active” and the Activity [17] was “inactive”. The Activity [18] was “inactive”, the Emax [19] was 75% and the fold change (FC) [20] was 0.93. The fold change (FC) [21] was 0.67, the fold change (FC) [22] was 0.85 and the fold change (FC) [23] was 0.82. For the same compound, the fold change (FC) [24] was 1.2, the Activity [25] was “inactive” and the Activity [26] was “inactive”. For the same compound, the Activity [27] was “inactive”, the Activity [28] was “Active” and the Activity [29] was “Active”.

From ChEMBL document CHEMBL6087472, “Development and Discovery of a Selective Degrader of Casein Kinases 1 δ/ε” (J Med Chem, 2025)
